Like-named read-outs stand apart in the source and are kept apart here. Where a SMILES comes first, the peptide text is derived from it.

This is an account of results in PMC4458427 (Journal of controlled release : official journal of the …, 2015).

For data set [1] the following is noted: mouse, in vivo, 1 mg/kg.
Data set [2] has as its system A549 (lung carcinoma) cells. As to the kind of experiment: MTT cytotoxicity, A549. The data set is classed as cell-based. Conditions: Homo sapiens, A549, 72 h.
The test system of data set [3] is NCI/ADR-RES (multi-drug resistant ovarian adenocarcinoma) cells. As to the kind of experiment: cells. The data set is classed as cell-based. The following applies: 72 h.
The conditions of data set [4]: human; cited from earlier work.
For data set [5] the following is noted: mouse; cited from earlier work.

In the case of `CC(=O)O[C@H]1C(=O)[C@@]2(C)[C@H]([C@H](OC(=O)c3ccccc3)[C@]3(O)C[C@H](OC(=O)[C@H](O)[C@@H](NC(=O)c4ccccc4)c4ccccc4)C(C)=C1C3(C)C)[C@]1(OC(C)=O)CO[C@@H]1C[C@@H]2O` [PTX, Paclitaxel], in data set [1], the “tolerability at maximum soluble concentration” value was “well tolerated”. Besides, the half-maximal inhibitory concentration (IC50) (as a rule, the concentration that gives 50% inhibition) in data set [2] is 0.0036 µM; in data set [3] (Homo sapiens, NCI/ADR-RES), 9.7 µM. In addition, the “decrease in activity compared to the peptide conjugate” value in data set [3] (NCI/ADR-RES, MTT) is given as about 2 fold.

With YGRKKRRQRRR-NH2 [TAT], the reported half-life in data set [4] was 3.5 min.

Consider KKVVFKVKFKK-NH2 [KSLK], for which the reported half-life in data set [5] was 6 min.

Turning to `CC(C)[C@H](NC(=O)[C@H](CCCCN)NC(=O)[C@@H](NC(=O)[C@H](CCCCN)NC(=O)[C@@H](NC(=O)[C@H](CCCCN)NC(=O)[C@@H](NC(=O)[C@@H]1CCCN1C(=O)[C@H]1CCCN1C(=O)[C@@H](NC(=O)[C@H](CCCCN)NC(=O)[C@@H](NC(=O)[C@H](CCCCN)NC(=O)[C@@H](NC(=O)[C@H](CCCCN)NC(=O)[C@@H](NC(=O)[C@@H](N)CCCCN)C(C)C)C(C)C)C(C)C)C(C)C)[C@@H](C)O)C(C)C)C(C)C)C(=O)N[C@@H](CCCCN)C(N)=O` [SVS-1] (HELM PEPTIDE1{K.V.K.V.K.V.K.V.[dP].P.T.K.V.K.V.K.V.K.[am]}$$$$V2.0), in data set [3], half-maximal inhibition (IC50) was put at 3.21 µM.
